Reference: US4956344A, “Method for treatment of lesions in the large intestinal epithelium with a tripeptide” (Hafslund Nycomed A/S, priority 1989, dated 1990)
“And” between values parts separate entries of the source, which are not always exact repeats. Identical values can stand only once. Square brackets hold non-standard residues; d marks the D form. Peptide text beside a SMILES is read from it. pGlu = O=C1CC[C@@H](C(=O)O)N1

Tests used:
[1] = test system: large intestinal epithelium; assay: Mitotic rate (Colcemid-arrested metaphases) in the large intestinal epithelium after i.p. injection; type: in vivo, hairless mice; set-up: mitotic rate in the large intestinal epithelium, Treated group Mean / Mitotic rate, Treated: unit not given here; conditions: for cell proliferation in the large intestinal epithelium (mitotic rate), Treated: mean
Protocol: (§1) All in vivo experiments were performed with hairless mice at 0800-0900 AM. The fractions were suspended in distilled water, slightly acidified (pH=6) and injected i.p. at different doses dependent on the purity of the fraction. The controls received solvent only. The pattern of cell proliferation after injecting the peptide was examined by varying the time between treatment and sacrifice.
Two hours before sacrifice (except for the experiments testing tissue specificity in the kidney) all animals received Colcemid 0.15 mg per animal i.p. ^3 HTdR (tritiated thymidine) was injected 30 minutes before sacrifice (30 μCi per animal i.p.). […]
Mitotic rate: After routine dehydration and paraffin embedding, sections were cut at 5 μm and stained with haematoxylin. Colcemid-arrested mitoses per 500 crypt cells were determined in ten longitudinally cut crypts in ileum and colon. Only crypts that were cut strictly longitudinally were accepted, viz., only those where the lumen of the crypt could be followed from the bottom of the gland to the lumen of the gut. No telophases were seen. The number of accumulated metaphases in epidermis Was determined by counting 25 vision fields of interfollicular epidermis (eyepiece 12.5, objective 40) and expressed as mitoses per vision field per 2h.

[2] = test system: large intestinal epithelium; assay: Labelling index (3HTdR-labelled crypt cells) in the large intestinal epithelium after i.p. injection; type: in vivo, hairless mice; set-up: key to Labelling index, Treated: fraction of labelled cells per 500 crypt cells; conditions: for Labelling index, Treated: 10^-12 mole per animal
Protocol: as §1
(§2) Two hours before sacrifice (except for the experiments testing tissue specificity in the kidney) all animals received Colcemid 0.15 mg per animal i.p. ^3 HTdR (tritiated thymidine) was injected 30 minutes before sacrifice (30 μCi per animal i.p.).
Labelling index: Paraffin sections, cut at 5 μm, were dipped in Kodak-NTB emulsion and exposed for 3 weeks at 0°-4° C., developed, and stained with haematoxylin The number of labelled cells were counted per 500 crypt cells in longitudinally cut crypts as described above. Similarly, the number of labelled cells in 40 vision fields of interfollicular epidermis (eyepiece 12.5, objective 40) was determined. A cell was considered labelled when the number of grains was five or more.

epidermis = assay: Tissue specificity: mitotic rate in epidermis (back skin); type: in vivo, hairless mice; conditions: time and dose levels tested
Protocol: (§3) To test for possible tissue specificity of the tripeptide the back skin and a defined part of ileum of eight animals were fixed immediately after killing. The mitotic rate (see below) in sections from these tissues was compared with the corresponding values in solvent-treated animals. Unilateral nephrectomy (uNX) was performed in four animals, and the animals were treated with the tripeptide at 18h after surgery. Controls underwent uNX and received solvent only. These animals received Colcemid 3h before sacrifice at 42h. The mitotic rate (number of accumulated metaphases per 1000 cells per 3h) was registered in the outer part of the kidney cortex.
as §2
(§4) Mitotic rate: After routine dehydration and paraffin embedding, sections were cut at 5 μm and stained with haematoxylin. Colcemid-arrested mitoses per 500 crypt cells were determined in ten longitudinally cut crypts in ileum and colon. Only crypts that were cut strictly longitudinally were accepted, viz., only those where the lumen of the crypt could be followed from the bottom of the gland to the lumen of the gut.

small intestine = assay: Tissue specificity: mitotic rate in small intestine (ileum); type: in vivo, hairless mice; conditions: time and dose levels tested
Protocol: as §3, §2, §4

[3] = test system: kidney tubular epithelium; assay: Tissue specificity: mitotic rate in kidney cortex after unilateral nephrectomy; type: in vivo, hairless mice; conditions: proliferation induced by contralateral nephrectomy; treated 18h after surgery, sacrifice at 42h
Protocol: as §3

[4] = test system: colon carcinoma cell line HT 29; assay: Proliferation of HT 29 cells, incorporation of tritiated thymidine; type: cell-based; conditions: for incorporation of 3HTdR, Treated (Mean): 1 % fetal calf serum, 6 hour-period
Protocol: Cell culture: HT 29 cells, 20000 cells per well in 96-well tissue culture clusters. Medium: RPMI 1640, 1 % fetal calf serum Concentration of the tripeptide 10^-8 M, lyophilized peptide dissolved in medium.
Assay for proliferation: Incorporation of tritiated thymidine (^3 HTdR) 6 hour-period, ^3 HTdR 1 uCi per well.
The tripeptide was added to the culture on the third day (exponential growth), and the incorporation of tritiated thymidine was measured for 6 hour-periods at 16h, 24h, and 40h after the peptide was added to the wells.

O=C(O)CC[C@H](NC(=O)[C@@H]1CCC(=O)N1)C(=O)N[C@@H](CC(=O)O)C(=O)N[C@@H](CO)C(=O)NCC(=O)O [pGlu-Glu-Asp-Ser-Gly (OH), reference compound] ([pGlu]EDSG-OH)
cell proliferation in the large intestinal epithelium ([1]; 10^-12 mole per animal, doses and times tested): unchanged

O=C(O)CNC(=O)[C@H](Cc1c[nH]cn1)NC(=O)[C@@H]1CCC(=O)N1 [pGlu-His-Gly(OH), L-pyroglutamyl-L-histidyl-glycine] ([pGlu]-His-Gly-OH)
number of accumulated metaphases ([1]; 2-4h after injection, 10^-12 mole per animal i.p.): significantly reduced | cell proliferation in the large intestinal epithelium (mitotic rate), Treated ([1]; 10^-6 mole per animal i.p.): 0.047 | cell proliferation in the large intestinal epithelium (mitotic rate), Treated ([1]; 10^-9 mole per animal i.p.): 0.044 | inhibition of mitotic rate in the large intestinal epithelium ([1]; 10^-11 mole per animal): smaller, but significant inhibition | cell proliferation in the large intestinal epithelium (mitotic rate), Treated ([1]; 10^-11 mole per animal i.p., p<0.05): 0.021 | reduction of the number of accumulated metaphases ([1]; 10^-12 mole per animal): more than 50% | cell proliferation in the large intestinal epithelium (mitotic rate), Treated ([1]; 10^-12 mole per animal i.p., p<0.05): 0.018 | mitotic rate in the large intestinal epithelium, Treated group Mean ([1]; 10^-12 mole per animal, synthetic peptide, seven identical experiments in mice, one line each, p<0.05): 0.018 and 0.021 and 0.026 and 0.043 and 0.025 | cell proliferation in the large intestinal epithelium (mitotic rate), Treated ([1]; 10^-15 mole per animal i.p.): 0.042 | cell proliferation in the large intestinal epithelium (mitotic rate), Treated ([1]; 10^-18 mole per animal i.p.): 0.035 | Mitotic rate, Treated ([1]; 2 h after single i.p. injection, 10^-12 mole per animal): 0.021 | Mitotic rate, Treated ([1]; 4 h after single i.p. injection, 10^-12 mole per animal): 0.018 | Mitotic rate, Treated ([1]; 6 h after single i.p. injection, 10^-12 mole per animal): 0.027 | Mitotic rate, Treated ([1]; 8 h after single i.p. injection, 10^-12 mole per animal): 0.031 | Mitotic rate, Treated ([1]; 12 h after single i.p. injection, 10^-12 mole per animal): 0.019 | Mitotic rate, Treated ([1]; 15 h after single i.p. injection, 10^-12 mole per animal): 0.010 | Mitotic rate, Treated ([1]; 18 h after single i.p. injection, 10^-12 mole per animal): 0.027 | Mitotic rate, Treated ([1]; 24 h after single i.p. injection, 10^-12 mole per animal): 0.057 | mitotic rate, second effect ([1]; approximately 15h after injection, less pronounced than the first, 10^-12 mole per animal): new Wave of inhibition | decrease in cell proliferation in the large intestinal epithelium ([1]; doses higher than 10^-11 or lower than 10^-12 mole per animal): no significant decrease | mitotic count in the treated group ([1]; thereafter, for a period of 6-8h, not formally significant, 10^-12 mole per animal): exceeded the control level | reduced LI, significance ([2]; 15 and 18 h after treatment): not statistically significant | Labelling index, Treated ([2]; 2 h after single i.p. injection): 0.086 | labelling index (LI) ([2]; 4h after injection): pronounced reduction | Labelling index, Treated ([2]; 4 h after single i.p. injection): 0.067 | Labelling index, Treated ([2]; 6 h after single i.p. injection): 0.067 | Labelling index, Treated ([2]; 8 h after single i.p. injection): 0.058 | Labelling index, Treated ([2]; 12 h after single i.p. injection): 0.048 | Labelling index, Treated ([2]; 15 h after single i.p. injection): 0.068 | Labelling index, Treated ([2]; 18 h after single i.p. injection): 0.11 | Labelling index, Treated ([2]; 24 h after single i.p. injection): 0.098 | number of labelled cells, second period ([2]; approximately 8h after the first decrease): second inhibition of the same degree | inhibitory effect on cell proliferation in epidermis (epidermis): No inhibitory effect | inhibitory effect on cell proliferation in the small intestine (small intestine): No inhibitory effect | inhibitory effect on cell proliferation in kidney tubular epithelium [3]: No inhibitory effect | incorporation of 3HTdR, Treated (Mean) ([4]; 10^-8 M, 16 h after addition of peptide): 12177 | incorporation of 3HTdR, Treated (Mean) ([4]; 10^-8 M, 24 h after addition of peptide): 9080 | incorporation of 3HTdR, Treated (Mean) ([4]; 10^-8 M, 40 h after addition of peptide): 12485 | incorporation of 3HTdR ([4]; 10^-8 M, 24-30h after the treatment, 1 % serum): significant reduction | inhibition of 3HTdR incorporation ([4]; 10^-10 M): less, but still significant inhibition | growth of HT 29 cells with increased serum ([4]; serum addition increased to 10 &): varied between significant inhibition of growth and no effect
